Converted amounts (≈) assume the structure as drawn.
Key:
Format in all cases: functional
Klebsiella pneumoniae [1] = assay: Antibacterial activity against extended-spectrum beta-lactamase producin Klebsiella pneumoniae 12-4 after 18 to 24 hrs by standard twofold serial dilution method
Pseudomonas aeruginosa [2] = assay: Antibacterial activity against Pseudomonas aeruginosa 12-14 after 18 to 24 hrs by standard twofold serial dilution method
Escherichia coli [3] = assay: Antibacterial activity against extended-spectrum beta-lactamase producing Escherichia coli 12-15 after 18 to 24 hrs by standard twofold serial dilution method
Streptococcus pneumoniae [4] = assay: Antibacterial activity against Streptococcus pneumoniae 12-18 after 18 to 24 hrs by standard twofold serial dilution method
Escherichia coli [5] = assay: Antibacterial activity against Escherichia coli 12-1 after 18 to 24 hrs by standard twofold serial dilution method
Klebsiella pneumoniae [6] = assay: Antibacterial activity against Klebsiella pneumoniae 12-4 after 18 to 24 hrs by standard twofold serial dilution method
Klebsiella pneumoniae [7] = assay: Antibacterial activity against extended-spectrum beta-lactamase producin Klebsiella pneumoniae 12-3 after 18 to 24 hrs by standard twofold serial dilution method
Klebsiella pneumoniae [8] = assay: Antibacterial activity against extended-spectrum beta-lactamase producin Klebsiella pneumoniae 12-7 after 18 to 24 hrs by standard twofold serial dilution method
Escherichia coli [9] = assay: Antibacterial activity against extended-spectrum beta-lactamase producing Escherichia coli 12-14 after 18 to 24 hrs by standard twofold serial dilution method
Klebsiella pneumoniae [10] = assay: Antibacterial activity against extended-spectrum beta-lactamase producin Klebsiella pneumoniae 12-14 after 18 to 24 hrs by standard twofold serial dilution method
[11] = system: Staphylococcus epidermidis; assay: Antibacterial activity against methicillin-resistant Staphylococcus epidermidis 12-6 after 18 to 24 hrs by standard twofold serial dilution method
Pseudomonas aeruginosa [12] = assay: Antibacterial activity against Pseudomonas aeruginosa 12-12 after 18 to 24 hrs by standard twofold serial dilution method
[13] = system: Staphylococcus epidermidis; assay: Antibacterial activity against methicillin-resistant Staphylococcus epidermidis 12-1 after 18 to 24 hrs by standard twofold serial dilution method
Escherichia coli [14] = assay: Antibacterial activity against Escherichia coli ATCC 25922 after 18 to 24 hrs by standard twofold serial dilution method
Streptococcus pneumoniae [15] = assay: Antibacterial activity against Streptococcus pneumoniae ATCC 49619 after 18 to 24 hrs by standard twofold serial dilution method
Staphylococcus aureus [16] = assay: Antibacterial activity against methicillin-sensitive Staphylococcus aureus 12-1 after 18 to 24 hrs by standard twofold serial dilution method
Staphylococcus aureus [17] = assay: Antibacterial activity against methicillin-resistant Staphylococcus aureus 12-2 after 18 to 24 hrs by standard twofold serial dilution method
[18] = system: Mycobacterium tuberculosis; assay: Antimycobacterial activity against Mycobacterium tuberculosis H37Rv ATCC 27294 by MABA method
Staphylococcus aureus [19] = assay: Antibacterial activity against methicillin-sensitive Staphylococcus aureus 12-2 after 18 to 24 hrs by standard twofold serial dilution method
Staphylococcus aureus [20] = assay: Antibacterial activity against methicillin-resistant Staphylococcus aureus 12-4 after 18 to 24 hrs by standard twofold serial dilution method
Staphylococcus aureus [21] = assay: Antibacterial activity against methicillin-sensitive Staphylococcus aureus 12-4 after 18 to 24 hrs by standard twofold serial dilution method
[22] = system: Staphylococcus epidermidis; assay: Antibacterial activity against methicillin-sensitive Staphylococcus epidermidis 12-3 after 18 to 24 hrs by standard twofold serial dilution method
[23] = system: Staphylococcus epidermidis; assay: Antibacterial activity against methicillin-sensitive Staphylococcus epidermidis 12-1 after 18 to 24 hrs by standard twofold serial dilution method
Klebsiella pneumoniae [24] = assay: Antibacterial activity against Klebsiella pneumoniae 12-2 after 18 to 24 hrs by standard twofold serial dilution method
Klebsiella pneumoniae [25] = assay: Antibacterial activity against Klebsiella pneumoniae 12-1 after 18 to 24 hrs by standard twofold serial dilution method
Escherichia coli [26] = assay: Antibacterial activity against extended-spectrum beta-lactamase producing Escherichia coli 12-2 after 18 to 24 hrs by standard twofold serial dilution method
Staphylococcus aureus [27] = assay: Antibacterial activity against Staphylococcus aureus ATCC 25923 after 18 to 24 hrs by standard twofold serial dilution method
[28] = system: Staphylococcus epidermidis; assay: Antibacterial activity against methicillin-sensitive Staphylococcus epidermidis 12-6 after 18 to 24 hrs by standard twofold serial dilution method
Staphylococcus aureus [29] = assay: Antibacterial activity against methicillin-sensitive Staphylococcus aureus 12-5 after 18 to 24 hrs by standard twofold serial dilution method
Escherichia coli [30] = assay: Antibacterial activity against extended-spectrum beta-lactamase producing Escherichia coli 12-3 after 18 to 24 hrs by standard twofold serial dilution method
[31] = system: Staphylococcus epidermidis; assay: Antibacterial activity against methicillin-sensitive Staphylococcus epidermidis 12-8 after 18 to 24 hrs by standard twofold serial dilution method
Staphylococcus aureus [32] = assay: Antibacterial activity against methicillin-resistant Staphylococcus aureus 12-5 after 18 to 24 hrs by standard twofold serial dilution method

Structure (SMILES) | MIC (Klebsiella pneumoniae [1]) [µg/mL] | MIC (Pseudomonas aeruginosa [2]) [µg/mL] | MIC (Escherichia coli [3]) [µg/mL] | MIC (Streptococcus pneumoniae [4]) [µg/mL] | MIC (Escherichia coli [5]) [µg/mL] | MIC (Klebsiella pneumoniae [6]) [µg/mL] | MIC (Klebsiella pneumoniae [7]) [µg/mL] | MIC (Klebsiella pneumoniae [8]) [µg/mL] | MIC (Escherichia coli [9]) [µg/mL] | MIC (Klebsiella pneumoniae [10]) [µg/mL] | MIC [11] [µg/mL] | MIC (Pseudomonas aeruginosa [12]) [µg/mL] | MIC [13] [µg/mL] | MIC (Escherichia coli [14]) [µg/mL] | MIC (Streptococcus pneumoniae [15]) [µg/mL] | MIC (Staphylococcus aureus [16]) [µg/mL] | MIC (Staphylococcus aureus [17]) [µg/mL] | MIC [18] [µg/mL] | MIC (Staphylococcus aureus [19]) [µg/mL] | MIC (Staphylococcus aureus [20]) [µg/mL] | also measured
CO/N=C1/CN(c2cc3c(cc2F)c(=O)c(C(=O)O)cn3[C@@H]2C[C@@H]2F)[C@H]1CN | 8 (≈ 20.4 µM) | 32 (≈ 81.6 µM) | > 128 | 0.5 (≈ 1.27 µM) | 1 (≈ 2.55 µM) | 0.015 (≈ 0.0382 µM) | 64 (≈ 163 µM) | 0.5 (≈ 1.27 µM) | 64 (≈ 163 µM) | 64 (≈ 163 µM) | 4 (≈ 10.2 µM) | 0.25 (≈ 0.637 µM) | 8 (≈ 20.4 µM) | < 0.008 | 0.125 (≈ 0.319 µM) | 0.5 (≈ 1.27 µM) | 32 (≈ 81.6 µM) | 0.5 (≈ 1.27 µM) | 0.5 (≈ 1.27 µM) | 64 (≈ 163 µM) | MIC (Staphylococcus aureus [21]): 0.25 µg/mL (≈ 0.637 µM); MIC [22]: 0.25 µg/mL (≈ 0.637 µM); MIC [23]: 0.25 µg/mL (≈ 0.637 µM); MIC (Klebsiella pneumoniae [24]): 0.125 µg/mL (≈ 0.319 µM); MIC (Klebsiella pneumoniae [25]): 0.125 µg/mL (≈ 0.319 µM); MIC (Escherichia coli [26]): 128 µg/mL (≈ 326 µM); MIC (Staphylococcus aureus [27]): 0.06 µg/mL (≈ 0.153 µM); MIC [28]: 0.25 µg/mL (≈ 0.637 µM); MIC (Staphylococcus aureus [29]): 0.5 µg/mL (≈ 1.27 µM); MIC (Escherichia coli [30]): 16 µg/mL (≈ 40.8 µM); MIC [31]: 0.125 µg/mL (≈ 0.319 µM); MIC (Staphylococcus aureus [32]): 32 µg/mL (≈ 81.6 µM)
CCO/N=C1/CN(c2cc3c(cc2F)c(=O)c(C(=O)O)cn3[C@@H]2C[C@@H]2F)[C@H]1CN | 8 (≈ 19.7 µM) | 32 (≈ 78.7 µM) | 128 (≈ 315 µM) | 1 (≈ 2.46 µM) | 0.125 (≈ 0.308 µM) | 0.06 (≈ 0.148 µM) | 32 (≈ 78.7 µM) | 0.5 (≈ 1.23 µM) | 16 (≈ 39.4 µM) | 32 (≈ 78.7 µM) | 8 (≈ 19.7 µM) | 0.5 (≈ 1.23 µM) | 4 (≈ 9.84 µM) | 0.03 (≈ 0.0738 µM) | 0.06 (≈ 0.148 µM) | 0.125 (≈ 0.308 µM) | 16 (≈ 39.4 µM) | 2 (≈ 4.92 µM) | 0.06 (≈ 0.148 µM) | 32 (≈ 78.7 µM) | MIC (Staphylococcus aureus [21]): 0.06 µg/mL (≈ 0.148 µM); MIC [22]: 0.5 µg/mL (≈ 1.23 µM); MIC [23]: 0.125 µg/mL (≈ 0.308 µM); MIC (Klebsiella pneumoniae [24]): 0.06 µg/mL (≈ 0.148 µM); MIC (Klebsiella pneumoniae [25]): 0.06 µg/mL (≈ 0.148 µM); MIC (Escherichia coli [26]): 32 µg/mL (≈ 78.7 µM); MIC (Staphylococcus aureus [27]): 0.03 µg/mL (≈ 0.0738 µM); MIC [28]: 0.125 µg/mL (≈ 0.308 µM); MIC (Staphylococcus aureus [29]): 0.125 µg/mL (≈ 0.308 µM); MIC (Escherichia coli [30]): 8 µg/mL (≈ 19.7 µM); MIC [31]: 2 µg/mL (≈ 4.92 µM); MIC (Staphylococcus aureus [32]): 16 µg/mL (≈ 39.4 µM)
NC[C@H]1/C(=N\OCc2ccccc2)CN1c1cc2c(cc1F)c(=O)c(C(=O)O)cn2[C@@H]1C[C@@H]1F | 8 (≈ 17.1 µM) | 6 (≈ 12.8 µM) | > 128 | 1 (≈ 2.13 µM) | 2 (≈ 4.27 µM) | 0.25 (≈ 0.534 µM) | 32 (≈ 68.3 µM) | 1 (≈ 2.13 µM) | 64 (≈ 137 µM) | 64 (≈ 137 µM) | 16 (≈ 34.2 µM) | 2 (≈ 4.27 µM) | 4 (≈ 8.54 µM) | 0.125 (≈ 0.267 µM) | 0.25 (≈ 0.534 µM) | 0.125 (≈ 0.267 µM) | 16 (≈ 34.2 µM) | 0.5 (≈ 1.07 µM) | 0.03 (≈ 0.064 µM) | 16 (≈ 34.2 µM) | MIC (Staphylococcus aureus [21]): 0.03 µg/mL (≈ 0.064 µM); MIC [22]: 0.25 µg/mL (≈ 0.534 µM); MIC [23]: 0.125 µg/mL (≈ 0.267 µM); MIC (Klebsiella pneumoniae [24]): 0.06 µg/mL (≈ 0.128 µM); MIC (Klebsiella pneumoniae [25]): 0.125 µg/mL (≈ 0.267 µM); MIC (Escherichia coli [26]): 128 µg/mL (≈ 273 µM); MIC (Staphylococcus aureus [27]): 0.015 µg/mL (≈ 0.032 µM); MIC [28]: 0.125 µg/mL (≈ 0.267 µM); MIC (Staphylococcus aureus [29]): 0.125 µg/mL (≈ 0.267 µM); MIC (Escherichia coli [30]): 16 µg/mL (≈ 34.2 µM); MIC [31]: 2 µg/mL (≈ 4.27 µM); MIC (Staphylococcus aureus [32]): 8 µg/mL (≈ 17.1 µM)
CO/N=C1/CN(c2cc3c(cc2F)c(=O)c(C(=O)O)cn3[C@@H]2C[C@@H]2F)[C@@H]1CN | 16 (≈ 40.8 µM) | 64 (≈ 163 µM) | > 128 | 2 (≈ 5.1 µM) | 0.5 (≈ 1.27 µM) | 0.25 (≈ 0.637 µM) | 128 (≈ 326 µM) | 4 (≈ 10.2 µM) | 128 (≈ 326 µM) | 128 (≈ 326 µM) | 16 (≈ 40.8 µM) | 1 (≈ 2.55 µM) | 16 (≈ 40.8 µM) | 0.06 (≈ 0.153 µM) | 0.5 (≈ 1.27 µM) | 0.5 (≈ 1.27 µM) | 64 (≈ 163 µM) | 1 (≈ 2.55 µM) | 0.5 (≈ 1.27 µM) | 128 (≈ 326 µM) | MIC (Staphylococcus aureus [21]): 0.25 µg/mL (≈ 0.637 µM); MIC [22]: 1 µg/mL (≈ 2.55 µM); MIC [23]: 0.5 µg/mL (≈ 1.27 µM); MIC (Klebsiella pneumoniae [24]): 0.5 µg/mL (≈ 1.27 µM); MIC (Klebsiella pneumoniae [25]): 1 µg/mL (≈ 2.55 µM); MIC (Escherichia coli [26]): > 128 µg/mL; MIC (Staphylococcus aureus [27]): 0.5 µg/mL (≈ 1.27 µM); MIC [28]: 0.5 µg/mL (≈ 1.27 µM); MIC (Staphylococcus aureus [29]): 0.5 µg/mL (≈ 1.27 µM); MIC (Escherichia coli [30]): 128 µg/mL (≈ 326 µM); MIC [31]: 8 µg/mL (≈ 20.4 µM); MIC (Staphylococcus aureus [32]): 64 µg/mL (≈ 163 µM)
CCO/N=C1/CN(c2cc3c(cc2F)c(=O)c(C(=O)O)cn3[C@@H]2C[C@@H]2F)[C@@H]1CN | 16 (≈ 39.4 µM) | 32 (≈ 78.7 µM) | > 128 | 1 (≈ 2.46 µM) | 0.25 (≈ 0.615 µM) | 0.25 (≈ 0.615 µM) | 64 (≈ 157 µM) | 1 (≈ 2.46 µM) | 64 (≈ 157 µM) | 64 (≈ 157 µM) | 64 (≈ 157 µM) | 1 (≈ 2.46 µM) | 8 (≈ 19.7 µM) | 0.06 (≈ 0.148 µM) | 0.25 (≈ 0.615 µM) | 0.06 (≈ 0.148 µM) | 32 (≈ 78.7 µM) | 2 (≈ 4.92 µM) | 0.06 (≈ 0.148 µM) | 32 (≈ 78.7 µM) | MIC (Staphylococcus aureus [21]): 0.03 µg/mL (≈ 0.0738 µM); MIC [22]: 0.125 µg/mL (≈ 0.308 µM); MIC [23]: 0.06 µg/mL (≈ 0.148 µM); MIC (Klebsiella pneumoniae [24]): 0.25 µg/mL (≈ 0.615 µM); MIC (Klebsiella pneumoniae [25]): 0.25 µg/mL (≈ 0.615 µM); MIC (Escherichia coli [26]): 128 µg/mL (≈ 315 µM); MIC (Staphylococcus aureus [27]): < 0.008 µg/mL; MIC [28]: 0.06 µg/mL (≈ 0.148 µM); MIC (Staphylococcus aureus [29]): 0.03 µg/mL (≈ 0.0738 µM); MIC (Escherichia coli [30]): 16 µg/mL (≈ 39.4 µM); MIC [31]: 4 µg/mL (≈ 9.84 µM); MIC (Staphylococcus aureus [32]): 32 µg/mL (≈ 78.7 µM)

From ChEMBL document CHEMBL3352227, “Synthesis, antimycobacterial and antibacterial evaluation of l-[(1R, 2S)-2-fluorocyclopropyl]fluoroquinolone derivatives containing an oxime functional moiety” (Eur J Med Chem, 2014)
